In patent US4496655A, “Process for the production of tyramine oxidase” (Toyo Jozo Kabushiki Kaisha, priority 1981, dated 1985):
Like-named read-outs stand apart in the source and are kept apart here.

Experiments:
tyramine oxidase [1] = experiment: Effect of various substances on the activity of tyramine oxidase; type: biochemical, Arthrobacter sp. B-0813
Procedure: (§1) An enzyme solution (0.05 ml) is added to a reaction mixture (0.5 ml) consisting of the following, and the volume is increased to 1.0 ml by adding water and the mixture is incubated at 37° C. for 10 minutes.
(§2) Water (0.1 ml) is added in place of enzyme solution as a control. The reaction mixture is measured at 490 nm.
(§3) Enzyme activity is calculated by the following equation: [formula] wherein Δ490 nm is the absorption value at Δ490 nm for 10 minutes, and f is the dilution ratio.

tyramine oxidase [2] = experiment: Substrate specificity of tyramine oxidase; type: biochemical, Arthrobacter sp. B-0813; set-up: Relative activity (%) as substrate: concentration or dose not given beside the values; conditions: for Relative activity (%) as substrate: substrate added to the reaction mixture, tyramine = 100.0
Procedure: as §1, §2, §3
Substrate specificity was measured by adding various substrates to the reaction mixture.

[3] = system: Arthrobacter sp. B-0813 FERM-P No. 6240; type: cell-based; conditions: arthrobacter culture
Procedure: A medium (100 ml, pH 7.5) comprising by weight soybean oil 0.8%, corn steep liquor 1.0%, meat extract 0.1%, polypeptone 1.0%, NaCl 0.3% and β-phenylethylamine 0.15% was put into a 500 ml Erlenmeyer flask and sterilized at 120° C. for 20 minutes. Arthrobacter sp. B-0813 FERM-P No. 6240 was inoculated into the medium and the mixture was cultured at 30° C. for 20 hours to prepare a seed culture. The medium containing the same components (20 lit.) together with added 0.2% of antifoam agent (silicone AF-145), (Asahi Chem.) was poured into a 30 lit. jar fermenter and the above two flasks of seed culture were inoculated therein, then the medium was aerobically cultured with agitation at 250 rpm and with 20 lit./min. aeration for 20 hours. The tyramine oxidase activity of the cultured broth was 1.3 U/ml.
When tyramine or butylamine was added to the medium, a more than 200-fold increase in the yield of enzyme was observed as compared with no addition of these amines. The amount of such addition is 0.1-0.2%, preferably 0.15%. The culturing temperature is generally 25°-35° C. and the culturing time is 10-30 hours.

tyramine oxidase [4] = experiment: Km-value of tyramine oxidase; type: biochemical, Arthrobacter sp. B-0813; conditions: substrate tyramine
Procedure: as §1

[5] = amount added 5 mM, control (no addition) = 100.0
[6] = amount added 0.025 mM, control (no addition) = 100.0

Compound	Relative Activity (%) (tyramine oxidase [1]; [5])	Relative activity (%) as substrate (tyramine oxidase [2]) [%]	also measured
Cc1cc2nc3c(=O)[nH]c(=O)nc-3n(C[C@H](O)[C@H](O)[C@H](O)COP(=O)(O)OP(=O)(O)OC[C@H]3O[C@@H](n4cnc5c(N)ncnc54)[C@H](O)[C@@H]3O)c2cc1C [FAD]			Relative Activity (%) (tyramine oxidase [1]; amount added 0.1 mM, control (no addition) = 100.0): 75.4%
[Cl][Mn][Cl] [MnCl2]	82.8		
Cc1cc2nc3c(=O)[nH]c(=O)nc-3n(C[C@H](O)[C@H](O)[C@H](O)COP(=O)(O)O)c2cc1C [FMN, flavin mononucleotide]			Effect of addition on the activity of the enzyme (in words) (tyramine oxidase [1]): increases the activity; Relative Activity (%) (tyramine oxidase [1]; amount added 0.01 mM, control (no addition) = 100.0): 108.8%
NCCc1ccccc1 [β-phenylethylamine]		54.7	Activity of the enzyme on the substrate (in words) (tyramine oxidase [2]): activity
[Cl-].[Cl-].[Co+2] [CoCl2]	86.2		
Laurylbenzene sulfonate [Laurylbenzene sulfonate (LBS)]			Relative Activity (%) (tyramine oxidase [1]; amount added 0.05 mM, control (no addition) = 100.0): 63.9%
[Ca+2].[Cl-].[Cl-] [CaCl2]	86.2		
Cl.N [NH4 Cl]	96.6		
NCc1ccccc1 [Benzylamine]		0.0	
[N-]=[N+]=[N-].[Na+] [NaN3]	98.3		
O=C(O)CN(CCN(CC(=O)O)CC(=O)O)CC(=O)O [EDTA]			Relative Activity (%) (tyramine oxidase [1]): 100.0%
[Ba+2].[Cl-].[Cl-] [BaCl2]	96.6		
O=C(O)c1cc[c]([Hg][Cl])cc1 [p-chloromercuribenzoate (PCMB), p-chloromercuribenzoate]			Relative Activity (%) (tyramine oxidase [1]; amount added 0.2 mM, control (no addition) = 100.0): 79.3%
[Cl-].[Li+] [LiCl]	82.8		
CCCCCCCCCCCCCCCC[N+](C)(C)C.[Cl-] [Cetyltrimethylammonium chloride]			Relative Activity (%) (tyramine oxidase [1]; [6]): 0.0%
NCCc1ccc(Cl)cc1 [p-chlorophenylethylamine]		47.9	Activity of the enzyme on the substrate (in words) (tyramine oxidase [2]): activity
CN [Methylamine]		0.0	
CCN [Ethylamine]		0.0	
[Na+].[Na+].[O]=[Mo](=[O])([O-])[O-] [NaMoO4]	39.7		
NCCc1ccc(O)cc1 [Tyramine, p-hydroxyphenylethylamine]		100.0	Increase in the yield of enzyme compared with no addition of these amines [3]: more than 200 fold; Activity of the enzyme on the substrate (in words) (tyramine oxidase [2]): specific activity; Km (tyramine oxidase [4]): 27 µM
CCCCN [n-butylamine]		45.3	Increase in the yield of enzyme compared with no addition of these amines [3]: more than 200 fold; Activity of the enzyme on the substrate (in words) (tyramine oxidase [2]): activity
Triton X-100			Relative Activity (%) (tyramine oxidase [1]; [6]): 96.7%
